# Assays:
# Experiment in all cases: ≥ marks a high value that may be exact or a test limit, other limits are often not marked, values filed in µg/mL are converted to µM
# Escherichia coli JW0013 = tested on: Escherichia coli JW0013
# Bacillus subtilis = tested on: Bacillus subtilis
# Escherichia coli = tested on: Escherichia coli
# Klebsiella pneumoniae = tested on: Klebsiella pneumoniae
# Micrococcus luteus = tested on: Micrococcus luteus
# Proteus mirabilis = tested on: Proteus mirabilis
# Pseudomonas aeruginosa = tested on: Pseudomonas aeruginosa
# Salmonella typhimurium = tested on: Salmonella typhimurium
# Shigella dysenteriae = tested on: Shigella dysenteriae
# Staphylococcus aureus = tested on: Staphylococcus aureus
# [1] = tested on: Staphylococcus epidermidis
# Escherichia coli BL21 = tested on: Escherichia coli BL21
# [2] = tested on: Pseudomonas aeruginosa PAO1
# [3] = tested on: Clavibacter michiganensis subsp. michiganensis DSM 46294
# [4] = tested on: Pectobacterium carotovorum subsp. carotovorum DSM 30168
# [5] = tested on: Pseudomonas corrugata DSM 7228
# [6] = tested on: Pseudomonas syringae pv. syringae DSM 10604
# [7] = tested on: Pseudomonas syringae pv. tomato DC3000
# [8] = tested on: Xanthomonas vesicatoria DSM 50861
smiles,measurement,setting,value
CC[C@H](C)[C@H](NC(=O)[C@H](CCCN=C(N)N)NC(=O)[C@H](CCCN=C(N)N)NC(=O)[C@@H]1CCCN1C(=O)[C@@H]1CCCN1C(=O)[C@H](CCCN=C(N)N)NC(=O)[C@@H]1CCCN1C(=O)[C@H](CCCN=C(N)N)NC(=O)[C@@H]1CCCN1C(=O)[C@H](CC(C)C)NC(=O)[C@H](Cc1ccc(O)cc1)NC(=O)[C@H](CC(N)=O)NC(=O)[C@@H]1CCCN1C(=O)[C@H](CCCCN)NC(=O)[C@H](CC(=O)O)NC(=O)[C@@H](N)C(C)C)C(=O)N[C@@H](Cc1ccc(O)cc1)C(=O)N[C@@H](CC(N)=O)C(=O)N[C@@H](CCCN=C(N)N)C(N)=O [VDKPNYLPRPRPPRRIYNR],MIC,Escherichia coli JW0013,1.99 µM
CC[C@H](C)[C@H](NC(=O)[C@H](CCCN=C(N)N)NC(=O)[C@H](CCCN=C(N)N)NC(=O)[C@@H]1CCCN1C(=O)[C@@H]1CCCN1C(=O)[C@H](CCCN=C(N)N)NC(=O)[C@@H]1CCCN1C(=O)[C@H](CCCN=C(N)N)NC(=O)[C@@H]1CCCN1C(=O)[C@H](CCCCN)NC(=O)[C@H](Cc1ccc(O)cc1)NC(=O)[C@H](Cc1cnc[nH]1)NC(=O)[C@H](CCCN=C(N)N)NC(=O)[C@H](CCCCN)NC(=O)[C@H](CC(=O)O)NC(=O)[C@@H](N)C(C)C)C(=O)N[C@@H](Cc1ccc(O)cc1)C(=O)N[C@@H](CC(N)=O)C(=O)N[C@@H](CCCN=C(N)N)C(N)=O [VDKRHYKPRPRPPRRIYNR],MIC,Escherichia coli JW0013,0.519 µM
CC(C)C[C@H](NC(=O)[C@H](C)NC(=O)CNC(=O)[C@H](CC(C)C)NC(=O)[C@@H](N)Cc1ccccc1)C(=O)N[C@@H](Cc1ccccc1)C(=O)N[C@@H](CCCCN)C(=O)N[C@@H](CCCCN)C(=O)N[C@@H](C)C(=O)N[C@@H](CO)C(=O)N[C@@H](CCCCN)C(=O)O [FLGALFKKASK],MIC,Bacillus subtilis,≥ 82.7 µM
same,MIC,Escherichia coli,> 165 µM
same,MIC,Klebsiella pneumoniae,> 165 µM
same,MIC,Micrococcus luteus,10.3 µM
same,MIC,Proteus mirabilis,≥ 165 µM
same,MIC,Pseudomonas aeruginosa,> 165 µM
same,MIC,Salmonella typhimurium,≥ 165 µM
same,MIC,Shigella dysenteriae,≥ 165 µM
same,MIC,Staphylococcus aureus,165 µM
same,MIC,[1],≥ 165 µM
CC[C@H](C)[C@H](NC(=O)[C@H](CCCN=C(N)N)NC(=O)[C@H](CCCN=C(N)N)NC(=O)[C@@H]1CCCN1C(=O)[C@@H]1CCCN1C(=O)[C@H](CCCN=C(N)N)NC(=O)[C@@H]1CCCN1C(=O)[C@H](CCCN=C(N)N)NC(=O)[C@@H]1CCCN1C(=O)[C@H](CC(C)C)NC(=O)[C@H](Cc1ccc(O)cc1)NC(=O)[C@H](Cc1cnc[nH]1)NC(=O)[C@H](CCCN=C(N)N)NC(=O)[C@H](CCCCN)NC(=O)[C@H](CC(=O)O)NC(=O)[C@@H](N)C(C)C)C(=O)N[C@@H](Cc1ccc(O)cc1)C(=O)N[C@@H](CC(N)=O)C(=O)N[C@@H](CCCN=C(N)N)C(N)=O [VDKRHYLPRPRPPRRIYNR],MIC,Escherichia coli JW0013,0.683 µM
CC[C@H](C)[C@H](NC(=O)[C@H](C)NC(=O)[C@H](Cc1ccccc1)NC(=O)[C@H](CCCCN)NC(=O)[C@@H](N)C(C)C)C(=O)N[C@@H](CCCCN)C(=O)N[C@@H](CCCCN)C(=O)N[C@H](C(=O)NCC(=O)N[C@@H](CCCCN)C(=O)N[C@@H](CCCCN)C(=O)N[C@@H](C)C(=O)N[C@@H](C)C(=O)N[C@@H](CCCCN)C(=O)N[C@@H](CCCCN)C(=O)N[C@H](C(=O)N[C@H](C(=O)N[C@H](C(=O)N[C@@H](CCCCN)C(=O)N[C@@H](C)C(=O)O)C(C)C)[C@@H](C)CC)C(C)C)[C@@H](C)CC [VKFAIKKIGKKAAKKVIVKA],MIC,Escherichia coli BL21,≥ 128 µM
same,MIC,[2],32 µM
CC[C@H](C)[C@H](NC(=O)[C@H](CCCN=C(N)N)NC(=O)[C@H](CCCN=C(N)N)NC(=O)[C@@H]1CCCN1C(=O)[C@@H]1CCCN1C(=O)[C@H](CCCN=C(N)N)NC(=O)[C@@H]1CCCN1C(=O)[C@H](CCCN=C(N)N)NC(=O)[C@@H]1CCCN1C(=O)[C@H](CC(C)C)NC(=O)[C@H](Cc1ccc(O)cc1)NC(=O)[C@@H]1CCCN1C(=O)[C@H](CCC(N)=O)NC(=O)[C@H](CCCCN)NC(=O)[C@H](CC(=O)O)NC(=O)[C@@H](N)C(C)C)C(=O)N[C@@H](Cc1ccc(O)cc1)C(=O)N[C@@H](CC(N)=O)C(=O)N[C@@H](CCCN=C(N)N)C(N)=O [VDKQPYLPRPRPPRRIYNR],MIC,Escherichia coli JW0013,1.28 µM
CC(C)C[C@H](NC(=O)[C@H](C)NC(=O)CNC(=O)[C@H](CC(C)C)NC(=O)[C@@H](N)Cc1ccccc1)C(=O)N[C@@H](Cc1c[nH]c2ccccc12)C(=O)N[C@@H](CCCCN)C(=O)N[C@H](C(=O)N[C@@H](C)C(=O)N[C@@H](CO)C(=O)N[C@@H](CCCCN)C(=O)O)C(C)C [FLGALWKVASK],MIC,Bacillus subtilis,≥ 164 µM
same,MIC,Escherichia coli,164 µM
same,MIC,Klebsiella pneumoniae,82 µM
same,MIC,Micrococcus luteus,≥ 164 µM
same,MIC,Proteus mirabilis,≥ 164 µM
same,MIC,Pseudomonas aeruginosa,> 164 µM
same,MIC,Salmonella typhimurium,≥ 164 µM
same,MIC,Shigella dysenteriae,≥ 164 µM
same,MIC,Staphylococcus aureus,82 µM
same,MIC,[1],≥ 164 µM
CC[C@H](C)[C@H](NC(=O)[C@H](C)NC(=O)[C@H](CCCCN)NC(=O)[C@H](C)NC(=O)[C@@H](NC(=O)[C@H](CC(C)C)NC(=O)[C@H](CCCCN)NC(=O)[C@H](CC(C)C)NC(=O)[C@@H](NC(=O)[C@H](CCCCN)NC(=O)[C@@H](NC(=O)[C@H](C)NC(=O)[C@H](CCCCN)NC(=O)[C@H](CCCN=C(N)N)NC(=O)[C@H](CCCN=C(N)N)NC(=O)[C@@H](N)CCCCN)[C@@H](C)CC)[C@@H](C)CC)[C@@H](C)CC)C(=O)N[C@@H](CCCN=C(N)N)C(=O)N[C@@H](CCCCN)C(=O)N[C@@H](CCCCN)C(=O)N[C@@H](CCCN=C(N)N)C(N)=O [KRRKAIKILKLIAKAIRKKR],MIC,[3],0.103 µM
same,MIC,[4],4.11 µM
same,MIC,[5],0.103 µM
same,MIC,[6],4.11 µM
same,MIC,[7],4.11 µM
same,MIC,[8],0.0411 µM
CC(C)C[C@H](NC(=O)[C@H](C)NC(=O)CNC(=O)[C@H](CC(C)C)NC(=O)[C@@H](N)Cc1ccccc1)C(=O)N[C@@H](Cc1ccccc1)C(=O)N[C@@H](CCCCN)C(=O)N[C@H](C(=O)N[C@@H](C)C(=O)O)C(C)C [FLGALFKVA],MIC,Bacillus subtilis,≥ 207 µM
same,MIC,Escherichia coli,> 207 µM
same,MIC,Klebsiella pneumoniae,> 207 µM
same,MIC,Micrococcus luteus,≥ 207 µM
same,MIC,Proteus mirabilis,≥ 207 µM
same,MIC,Pseudomonas aeruginosa,> 207 µM
same,MIC,Salmonella typhimurium,≥ 207 µM
same,MIC,Shigella dysenteriae,≥ 207 µM
same,MIC,Staphylococcus aureus,> 207 µM
same,MIC,[1],≥ 207 µM
CC[C@H](C)[C@H](NC(=O)[C@H](CCCN=C(N)N)NC(=O)[C@H](CCCN=C(N)N)NC(=O)[C@@H]1CCCN1C(=O)[C@@H]1CCCN1C(=O)[C@H](CCCN=C(N)N)NC(=O)[C@@H]1CCCN1C(=O)[C@H](CCCN=C(N)N)NC(=O)[C@@H]1CCCN1C(=O)[C@H](CC(C)C)NC(=O)[C@H](Cc1ccc(O)cc1)NC(=O)[C@@H]1CCCN1C(=O)[C@@H]1CCCN1C(=O)[C@H](CCCCN)NC(=O)[C@H](CC(=O)O)NC(=O)[C@@H](N)CCCCN)C(=O)N[C@@H](Cc1ccc(O)cc1)C(=O)N[C@@H](CC(N)=O)C(=O)N[C@@H](CCCN=C(N)N)C(N)=O [KDKPPYLPRPRPPRRIYNR],MIC,Escherichia coli JW0013,1.98 µM
CC(C)C[C@H](NC(=O)[C@H](C)NC(=O)[C@H](Cc1ccccc1)NC(=O)[C@H](CCCN=C(N)N)NC(=O)[C@H](Cc1ccccc1)NC(=O)[C@H](C)NC(=O)[C@H](CCCN=C(N)N)NC(=O)[C@H](Cc1ccccc1)NC(=O)[C@H](C)NC(=O)[C@H](CC(C)C)NC(=O)[C@H](CCCCN)NC(=O)[C@H](CCCN=C(N)N)NC(=O)[C@H](CCCN=C(N)N)NC(=O)[C@@H](N)CCCCN)C(=O)N[C@@H](CCCCN)C(=O)N[C@@H](C)C(=O)N[C@H](C(=O)N[C@@H](CC(C)C)C(=O)N[C@@H](CCCCN)C(=O)N[C@@H](CCCCN)C(N)=O)C(C)C [KRRKLAFRAFRFALKAVLKK],MIC,[3],0.204 µM
same,MIC,[4],4.08 µM
same,MIC,[5],0.102 µM
same,MIC,[6],0.204 µM
same,MIC,[7],1.02 µM
same,MIC,[8],0.102 µM
